For orientation: EC50 means the midpoint of the concentration-response curve.

The target of this test is T1, IDO1 (Homo sapiens, UniProt P14902).
T1 construct: HeLa cells were treated with a test compound in the presence of IFNγ, which induces IDO1 expression; endogenous in cells; host or cells: H1-HeLa cells (ATCC #CRL-1958), IDO1 induced with IFNγ
T1 sequence (P14902 whole entry): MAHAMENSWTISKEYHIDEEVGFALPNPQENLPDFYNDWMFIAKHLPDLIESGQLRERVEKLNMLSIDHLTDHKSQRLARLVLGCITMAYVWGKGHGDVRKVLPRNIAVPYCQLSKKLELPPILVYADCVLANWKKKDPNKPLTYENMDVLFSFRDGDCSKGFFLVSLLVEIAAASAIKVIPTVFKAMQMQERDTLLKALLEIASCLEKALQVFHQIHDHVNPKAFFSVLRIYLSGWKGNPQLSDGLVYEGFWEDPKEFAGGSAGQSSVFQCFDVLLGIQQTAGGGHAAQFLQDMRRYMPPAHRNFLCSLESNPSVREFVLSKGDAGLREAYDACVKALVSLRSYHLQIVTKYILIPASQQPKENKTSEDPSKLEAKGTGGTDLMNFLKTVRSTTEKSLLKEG
The test is described as follows: Cell-Based (HeLa) Assay for Measurement of IDO1 Inhibition. The conditions noted are these: H1-HeLa cells, IDO1 induced with IFNγ, 48 hour incubation, kynurenine in supernatant (absorbance 480 nm); geometric mean of minimum four determinations. The procedure: To measure IDO1 inhibition in tissue culture, HeLa cells were treated with a test compound in the presence of IFNγ, which induces IDO1 expression. Following incubation, cell supernatants were assayed for kynurenine levels, an indicator of IDO1 activity.
The following day, the test compounds were added in DMSO (0.5% final) at various concentrations, and IDO1 was inducibly expressed by the addition of 50 uL/well of 50 ng/mL of INFγ (Peprotech #300-02) in cell plating media. As a positive control, 50 uL of the cell plating media without IFNγ was added to several wells. Following a 48 hour incubation, the plates were spun down at 1,200 RPM for 5 min at 10° C. 65 μL/well of the supernatant was then transferred to new 384-well plates (Thermo #262160) that contained 10 uL/well of 30% TCA (Sigma #TO699), and the plates were sealed and incubated at 60° C. for 30 min. The plates were then centrifuged for 15 min at 2,000 RPM at 10° C. 40 μL/well of the supernatant was transferred to new 384-well plates (Thermo #262160) and was reacted with 40 μL/well of 2% (w/v) p-dimethlyaminobenzaldehyde (Sigma #156417) in glacial acetic acid (Sigma #A6283). The reaction was incubated at room temperature for 10 min and absorbance at 480 nm was read using a PerkinElmer Envision plate reader.
Data in Table 1 were normalized based on positive (-IFNγ) and negative (+IFNγ) controls and EC50 values were calculated from the fit of the dose-response curves to a four-parameter equation. All EC50 values represent geometric mean values of a minimum of four determinations.
In turn, `COCCOCc1nc2c(-c3ccc(C(F)(F)F)c(C(=O)Nc4ccc(F)cc4)c3)cccn2c1-c1cccc(F)c1F` [Example 1, 5-(3-(2,3-difluorophenyl)-2-((2-methoxyethoxy)methyl)imidazo[1,2-a]pyridin-8-yl)-N-(4-fluorophenyl)-2-(trifluoromethyl)benz amide] returned an EC50 of 8680 nM. On to `Cc1ncc(-c2cccn3c(-c4cncc(F)c4)c(CO)nc23)cc1C(=O)Nc1ccc(F)cc1` [Example 2, N-(4-fluorophenyl)-5-(3-(5-fluoropyridin-3-yl)-2-(hydroxymethyl)imidazo[1,2-a]pyridin-8-yl)-2-methylnicotinamide], for which the response was half-maximal at 3610 nM (EC50).

On to `O=C(Nc1ccc(F)cc1)c1cc(-c2cccn3c(-c4cccc(F)c4F)cnc23)ncc1C(F)(F)F` [Example 3, 2-(3-(2,3-difluorophenyl)imidazo[1,2-a]pyridin-8-yl)-N-(4-fluorophenyl)-5-(trifluoromethyl)isonicotinamide], for which a half-maximal response (EC50) required 2390 nM. Consider `Cc1ccc(-c2cnc3c(-c4ccc(C(F)(F)F)c(C(=O)Nc5ccc(F)cc5)c4)cccn23)cn1` [Example 4, N-(4-fluorophenyl)-5-(3-(6-methylpyridin-3-yl)imidazo[1,2-a]pyridin-8-yl)-2-(trifluoromethyl)benzamide], for which the response was half-maximal at 2230 nM (EC50). In turn, `Cc1cccc(-c2cnc3c(-c4ccc(C(F)(F)F)c(C(=O)Nc5ccc(F)cc5)c4)cccn23)n1` [Example 5] returned an EC50 of 1700 nM. In turn, `O=C(Nc1ccc(F)cc1)c1cc(-c2cccn3c(-c4ccncc4)cnc23)ccc1C(F)(F)F` [Example 6, N-(4-fluorophenyl)-5-(3-(pyridin-4-yl)imidazo[1,2-a]pyridin-8-yl)-2-(trifluoromethyl)benzamide] displayed an EC50 of 1420 nM.

In turn, `NCc1nc2c(-c3ccc(C(F)(F)F)c(C(=O)Nc4ccc(F)cc4)c3)cccn2c1-c1cccc(F)c1F` [Example 7, 5-(2-(aminomethyl)-3-(2,3-difluorophenyl)imidazo[1,2-a]pyridin-8-yl)-N-(4-fluorophenyl)-2-(trifluoromethyl)benzamide] returned an EC50 of 1010 nM. Regarding `Cc1cnc(-c2cccn3c(-c4cccc(F)c4F)cnc23)cc1C(=O)Nc1ccc(F)cc1` [Example 8, 2-(3-(2,3-difluorophenyl)imidazo[1,2-a]pyridin-8-yl)-N-(4-fluorophenyl)-5-methylisonicotinamide], the EC50 stood at 945 nM.

`Cc1ncccc1-c1cnc2c(-c3ccc(C(F)(F)F)c(C(=O)Nc4ccc(F)cc4)c3)cccn12` [Example 9, N-(4-fluorophenyl)-5-(3-(2-methylpyridin-3-yl)imidazo[1,2-a]pyridin-8-yl)-2-(trifluoromethyl)benzamide] gave an EC50 of 535 nM.

`Cc1ccc(-c2cccn3c(-c4cccc(F)c4F)c(C)nc23)cc1C(=O)Nc1ccc(F)cc1` [Example 11, 5-(3-(2,3-difluorophenyl)-2-methylimidazo[1,2-a]pyridin-8-yl)-N-(4-fluorophenyl)-2-methylbenzamide] showed an EC50 of 436 nM. As to `Cc1ncc(-c2cccn3c(-c4cccc(F)c4F)cnc23)cc1C(=O)Nc1ccc(F)cc1` [Example 12, 5-(3-(2,3-difluorophenyl)imidazo[1,2-a]pyridin-8-yl)-N-(4-fluorophenyl)-2-methylnicotinamide], the EC50 worked out at 403 nM. Take `Cc1ncc(-c2ccnn3c(-c4cccc(F)c4F)cnc23)cc1C(=O)Nc1ccc(F)cc1` [Example 13]: the midpoint of the response, the EC50, lay at 395 nM. For the compound `Cc1ncc(-c2cccn3c(-c4cccc(F)c4F)c(CO)nc23)cc1C(=O)Nc1ccc(F)cc1` [Example 14, 5-(3-(2,3-difluorophenyl)-2-(hydroxymethyl)imidazo[1,2-a]pyridin-8-yl)-N-(4-fluorophenyl)-2-methylnicotinamide], the midpoint of the response, the EC50, lay at 372 nM. As for `O=C(Nc1ccc(F)cc1)c1cc(-c2cccn3c(-c4cccnc4)c(CO)nc23)ccc1Cl` [Example 15, 2-chloro-N-(4-fluorophenyl)-5-(2-(hydroxymethyl)-3-(pyridin-3-yl)imidazo[1,2-a]pyridin-8-yl)benzamide], the figure is 272 nM; as for `Cc1ccc(-c2cccn3c(-c4cccc(F)c4F)cnc23)nc1C(=O)Nc1ccc(F)cc1` [Example 16, 6-(3-(2,3-difluorophenyl)imidazo[1,2-a]pyridin-8-yl)-N-(4-fluorophenyl)-3-methylpicolinamide], 168 nM.

As to `Cc1ccc(-c2cccn3c(-c4ccccc4)cnc23)cc1C(=O)Nc1ccc(F)cc1` [Example 17, N-(4-fluorophenyl)-2-methyl-5-(3-phenylimidazo[1,2-a]pyridin-8-yl)benzamide], the response was half-maximal at 168 nM (EC50). `Cc1nc2c(-c3ccc(C(F)(F)F)c(C(=O)Nc4ccc(F)cc4)c3)cccn2c1-c1cccnc1` [Example 18, N-(4-fluorophenyl)-5-(2-methyl-3-(pyridin-3-yl)imidazo[1,2-a]pyridin-8-yl)-2-(trifluoromethyl)benzamide]: the EC50 turned out to be 165 nM. Regarding `Cc1ccc(-c2cccn3c(-c4cccc(F)c4)cnc23)cc1C(=O)Nc1ccc(F)cc1` [Example 19, N-(4-fluorophenyl)-5-(3-(3-fluorophenyl)imidazo[1,2-a]pyridin-8-yl)-2-methylbenzamide], the EC50 came to 146 nM. Turning to `O=C(Nc1ccc(F)cc1)c1cc(-c2cccn3c(-c4cccc(F)c4F)cnc23)cnc1C(F)(F)F` [Example 20, 5-(3-(2,3-difluorophenyl)imidazo[1,2-a]pyridin-8-yl)-N-(4-fluorophenyl)-2-(trifluoromethyl)nicotinamide], a half-maximal response (EC50) required 89 nM. As for `O=C(Nc1ccc(F)cc1)c1cc(-c2cccn3c(-c4cccnc4)c(CO)nc23)ccc1C(F)(F)F` [Example 21, N-(4-fluorophenyl)-5-(2-(hydroxymethyl)-3-(pyridin-3-yl)imidazo[1,2-a]pyridin-8-yl)-2-(trifluoromethyl)benzamide], the figure is 89 nM. In the case of `O=C(Nc1ccc(F)cc1)c1cc(-c2cccn3c(-c4cccnc4F)cnc23)ccc1C(F)(F)F` [Example 22, N-(4-fluorophenyl)-5-(3-(2-fluoropyridin-3-yl)imidazo[1,2-a]pyridin-8-yl)-2-(trifluoromethyl)benzamide] it was 74 nM; in that of `Cc1ccc(-c2cccn3c(-c4ccccc4F)cnc23)cc1C(=O)Nc1ccc(F)cc1` [Example 23, N-(4-fluorophenyl)-5-(3-(2-fluorophenyl)imidazo[1,2-a]pyridin-8-yl)-2-methylbenzamide], 73 nM; in that of `O=C(Nc1ccc(F)cc1)c1nc(-c2cccn3c(-c4cccc(F)c4F)cnc23)ccc1C(F)(F)F` [Example 24, 6-(3-(2,3-difluorophenyl)imidazo[1,2-a]pyridin-8-yl)-N-(4-fluorophenyl)-3-(trifluoromethyl)picolinamide], 64 nM. For the compound `O=C(Nc1ccc(F)cc1)c1cc(-c2cccn3c(-c4cccc(F)c4F)c(CO)nc23)ccc1C(F)(F)F` [Example 28, 5-(3-(2,3-difluorophenyl)-2-(hydroxymethyl)imidazo[1,2-a]pyridin-8-yl)-N-(4-fluorophenyl)-2-(trifluoromethyl)benzamide], the EC50 came to 40 nM. As for `Fc1ccc2[nH]c(-c3cc(-c4cccn5c(-c6cccc(F)c6F)cnc45)ccc3C(F)(F)F)nc2c1` [Example 36, 2-(5-(3-(2,3-difluorophenyl)imidazo[1,2-a]pyridin-8-yl)-2-(trifluoromethyl)phenyl)-5-fluoro-1H-benzo[d]imidazole], the figure is 713 nM.

Values taken from patent US11186579B2 (Gilead Sciences, Inc., priority 2018, dated 2021).
